#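 Abbreviation: GI50, concentration required for 50% inhibition of growth. The concentration for full growth arrest is given as TGI.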
# Columns and labels:
# Assay in all cases: inhibition of tumour cell growth, NCI panel, 384-well format
# M14 melanoma = system: M14 melanoma
# NCI-H226 lung = system: NCI-H226 lung
# UACC-257 melanoma = system: UACC-257 melanoma
# HCT-116 colon = system: HCT-116 colon
# MDA-MB-468 breast = system: MDA-MB-468 breast
# UACC-62 melanoma = system: UACC-62 melanoma
# 786-0 renal = system: 786-0 renal
# NCI/ADR-RES ovarian = system: NCI/ADR-RES ovarian
# COLO 205 colon = system: COLO 205 colon
# LOX IMVI melanoma = system: LOX IMVI melanoma
# NCI-H460 NSCLC = system: NCI-H460 NSCLC
# OVCAR-3 ovarian = system: OVCAR-3 ovarian
# IGROV1 ovarian = system: IGROV1 ovarian
# PC-3 prostate = system: PC-3 prostate
# CCRF-CEM leukemia = system: CCRF-CEM leukemia
# A549 NSCLC = system: A549 NSCLC
# NCI-H322M lung = system: NCI-H322M lung
# RPMI-8226 leukemia = system: RPMI-8226 leukemia
# HT29 colon = system: HT29 colon
# A498 renal = system: A498 renal
# ACHN renal = system: ACHN renal
# EKVX NSCLC = system: EKVX NSCLC
# MDA-MB-435 melanoma = system: MDA-MB-435 melanoma
# CAKI-1 renal = system: CAKI-1 renal
# NCI-H23 lung = system: NCI-H23 lung
# BT-549 breast = system: BT-549 breast
# MCF7 breast = system: MCF7 breast
# HS 578T breast = system: HS 578T breast
# SK-OV-3 ovarian = system: SK-OV-3 ovarian
# K-562 leukemia = system: K-562 leukemia
# SW-620 colon = system: SW-620 colon
# HCC-2998 colon = system: HCC-2998 colon
# HOP-62 NSCLC = system: HOP-62 NSCLC
# OVCAR-4 ovarian = system: OVCAR-4 ovarian
# MOLT-4 leukemia = system: MOLT-4 leukemia
# DU-145 prostate = system: DU-145 prostate
# SF-539 CNS = system: SF-539 CNS
# KM12 colon = system: KM12 colon
# SK-MEL-28 melanoma = system: SK-MEL-28 melanoma
# SNB-75 CNS = system: SNB-75 CNS
# SNB-19 CNS = system: SNB-19 CNS
# TK-10 renal = system: TK-10 renal
# SF-295 CNS = system: SF-295 CNS
# HCT-15 colon = system: HCT-15 colon
# MALME-3M melanoma = system: MALME-3M melanoma
# OVCAR-8 ovarian = system: OVCAR-8 ovarian
# HL-60(TB) leukemia = system: HL-60(TB) leukemia
# U251 glioblastoma = system: U251 glioblastoma
# RXF 393 renal = system: RXF 393 renal
# SN12C renal = system: SN12C renal
# HOP-92 NSCLC = system: HOP-92 NSCLC
# SK-MEL-5 melanoma = system: SK-MEL-5 melanoma
# SF-268 CNS = system: SF-268 CNS
# SK-MEL-2 melanoma = system: SK-MEL-2 melanoma
# NCI-H522 lung = system: NCI-H522 lung
structure (smiles),measurement,setting,value
O=C1C=CC(Nc2ccccc2[N+](=O)[O-])C1Nc1ccccc1[N+](=O)[O-] (stereo not given),GI50,M14 melanoma,1.71 µM
same,TGI,M14 melanoma,3.16 µM
same,GI50,NCI-H226 lung,1.53 µM
same,TGI,NCI-H226 lung,2.93 µM
same,GI50,UACC-257 melanoma,1.83 µM
same,TGI,UACC-257 melanoma,3.23 µM
same,GI50,HCT-116 colon,1.32 µM
same,TGI,HCT-116 colon,2.64 µM
same,GI50,MDA-MB-468 breast,0.51 µM
same,TGI,MDA-MB-468 breast,0.967 µM
same,GI50,UACC-62 melanoma,1.68 µM
same,TGI,UACC-62 melanoma,3.1 µM
same,GI50,786-0 renal,1.78 µM
same,TGI,786-0 renal,3.32 µM
same,GI50,NCI/ADR-RES ovarian,2.78 µM
same,TGI,NCI/ADR-RES ovarian,5.64 µM
same,GI50,COLO 205 colon,1.91 µM
same,TGI,COLO 205 colon,3.37 µM
same,GI50,LOX IMVI melanoma,1.84 µM
same,TGI,LOX IMVI melanoma,3.47 µM
same,GI50,NCI-H460 NSCLC,> 100 µM
same,TGI,NCI-H460 NSCLC,> 100 µM
same,GI50,OVCAR-3 ovarian,1.52 µM
same,TGI,OVCAR-3 ovarian,2.87 µM
same,GI50,IGROV1 ovarian,2.02 µM
same,TGI,IGROV1 ovarian,4.16 µM
same,GI50,PC-3 prostate,1.58 µM
same,TGI,PC-3 prostate,2.96 µM
same,GI50,CCRF-CEM leukemia,0.386 µM
same,TGI,CCRF-CEM leukemia,1.35 µM
same,GI50,A549 NSCLC,3.54 µM
same,TGI,A549 NSCLC,11.8 µM
same,GI50,NCI-H322M lung,13.8 µM
same,TGI,NCI-H322M lung,26.9 µM
same,GI50,RPMI-8226 leukemia,0.222 µM
same,TGI,RPMI-8226 leukemia,0.41 µM
same,GI50,HT29 colon,1.62 µM
same,TGI,HT29 colon,3.15 µM
same,GI50,A498 renal,2.01 µM
same,TGI,A498 renal,3.8 µM
same,GI50,ACHN renal,1.62 µM
same,TGI,ACHN renal,3.01 µM
same,GI50,EKVX NSCLC,3.02 µM
same,TGI,EKVX NSCLC,8.07 µM
same,GI50,MDA-MB-435 melanoma,2.4 µM
same,TGI,MDA-MB-435 melanoma,5.28 µM
same,GI50,CAKI-1 renal,1.29 µM
same,TGI,CAKI-1 renal,2.58 µM
same,GI50,NCI-H23 lung,1.98 µM
same,TGI,NCI-H23 lung,3.62 µM
same,GI50,BT-549 breast,1.58 µM
same,TGI,BT-549 breast,3.08 µM
same,GI50,MCF7 breast,1.64 µM
same,TGI,MCF7 breast,3.04 µM
same,GI50,HS 578T breast,1.84 µM
same,TGI,HS 578T breast,3.42 µM
same,GI50,SK-OV-3 ovarian,4.5 µM
same,TGI,SK-OV-3 ovarian,15.9 µM
same,GI50,K-562 leukemia,4.85 µM
same,TGI,K-562 leukemia,15 µM
same,GI50,SW-620 colon,1.73 µM
same,TGI,SW-620 colon,3.15 µM
same,GI50,HCC-2998 colon,2.05 µM
same,TGI,HCC-2998 colon,4.78 µM
same,GI50,HOP-62 NSCLC,2.3 µM
same,TGI,HOP-62 NSCLC,3.94 µM
same,GI50,OVCAR-4 ovarian,1.78 µM
same,TGI,OVCAR-4 ovarian,3.34 µM
same,GI50,MOLT-4 leukemia,0.344 µM
same,TGI,MOLT-4 leukemia,1.09 µM
same,GI50,DU-145 prostate,4.87 µM
same,TGI,DU-145 prostate,15.7 µM
same,GI50,SF-539 CNS,1.59 µM
same,TGI,SF-539 CNS,2.95 µM
same,GI50,KM12 colon,2.12 µM
same,TGI,KM12 colon,5.95 µM
same,GI50,SK-MEL-28 melanoma,1.95 µM
same,TGI,SK-MEL-28 melanoma,3.41 µM
same,GI50,SNB-75 CNS,4.16 µM
same,TGI,SNB-75 CNS,10.1 µM
same,GI50,SNB-19 CNS,5.2 µM
same,TGI,SNB-19 CNS,15.6 µM
same,GI50,TK-10 renal,1.65 µM
same,TGI,TK-10 renal,3.03 µM
same,GI50,SF-295 CNS,19.5 µM
same,TGI,SF-295 CNS,34.6 µM
same,GI50,HCT-15 colon,1.56 µM
same,TGI,HCT-15 colon,2.94 µM
same,GI50,MALME-3M melanoma,2.27 µM
same,TGI,MALME-3M melanoma,3.74 µM
same,GI50,OVCAR-8 ovarian,1.66 µM
same,TGI,OVCAR-8 ovarian,3.06 µM
same,GI50,HL-60(TB) leukemia,0.148 µM
same,TGI,HL-60(TB) leukemia,0.281 µM
same,GI50,U251 glioblastoma,2.11 µM
same,TGI,U251 glioblastoma,3.78 µM
same,GI50,RXF 393 renal,1.71 µM
same,TGI,RXF 393 renal,3.11 µM
same,GI50,SN12C renal,1.76 µM
same,TGI,SN12C renal,3.15 µM
same,GI50,HOP-92 NSCLC,2 µM
same,TGI,HOP-92 NSCLC,3.57 µM
same,GI50,SK-MEL-5 melanoma,1.75 µM
same,TGI,SK-MEL-5 melanoma,3.2 µM
same,GI50,SF-268 CNS,2.34 µM
same,TGI,SF-268 CNS,4.42 µM
same,GI50,SK-MEL-2 melanoma,0.445 µM
same,TGI,SK-MEL-2 melanoma,1.29 µM
same,GI50,NCI-H522 lung,1.39 µM
same,TGI,NCI-H522 lung,2.69 µM

# From PubChem BioAssay (NCI)
